From paper PMC10622513, “A fluorogenic, peptide-based probe for the detection of Cathepsin D in macrophages” (Communications Chemistry, 2023)
“Also recorded” adds a separate entry of the source.

Columns and labels:
[1] = parameters: method as in PMID 29876538; details: acids such as TFA or HCl; cited from earlier work
Description: The Methyl Red (MR) quencher was incorporated by coupling Fmoc-Lys(MR)-OH[20] onto a Rink-amide functionalised polystyrene resin (0.7 mmol/g), followed by the substrate sequence, using DIC and Oxyma as the coupling combination. The use of Fmoc-Lys(MR)-OH as a building block avoided the need for orthogonal deprotection on the resin[27],[28]. A bis-ethylene glycol spacer was introduced as the last amino acid before the fluorophore to increase hydrophilicity and promote aqueous solubility of the probe. The BODIPY (1,3,5,7-tetramethyl-8-phenyl-4,4-difluoroboradiazaindacene) fluorophore chosen as p ...

[2] = cited from earlier work
Description: The new probe designed here was FRET-based, with a BODIPY fluorophore at the N-terminus, while the C-terminal Gln was replaced with a Lys residue functionalised with a quencher (Methyl Red, λmax 500 nm)[20].

human cathepsin D = details: cited from earlier work
Description: Herein, we report the design and synthesis of a fluorogenic probe, based on a specific substrate for CatD, which provides an OFF→ON signal upon activation with good signal amplification. […] When choosing a substrate to build an optical probe to be used in cells and potentially in vivo, control of cross-reactivities is vital and it is important to design a specific substrate that is not ...

[3] = test system: CatD activity in human monocyte-derived macrophages (MDM); assay: Confocal imaging of CatD activity in monocyte-derived macrophages; format: cell-based; details: Pepstatin A 20 μM, S. pneumoniae MOI 10:1, CatD-P3 10 μM
Description: Confocal fluorescence microscopy (λex 488, λem 512 nm) images of the detection of CatD activity in monocyte-derived macrophages. […] Mock infected macrophages (no bacteria) were used as a control (left panel). […] At 10 h the cells were washed, fixed in 2% paraformaldehyde and cell nuclei were counter-stained with DAPI (λex 405, λem 461 nm).
Human MDM were matured in 24-well Corning tissue culture plates over 14 days from Peripheral Blood Mononuclear cells obtained healthy volunteers by informed written consent, under ethical approval 21-EMREC-041. Following maturation, the MDM were removed from wells by treatment with Accutase (BioLegend) and re-seeded onto iBidi 8-well chamber slides. […] Following fixation, cells were washed again with 3 × PBS, with DAPI (0.1 µg/mL) added in the 2nd PBS wash for 10 min.
In these experiments, macrophages were incubated for 6 h in the presence or absence (Mock)
(20 μM) was added aoer 4 h. At 10 h the cells were washed, ﬁxed in 2% paraformaldehyde and cell nuclei
were counter-stained with DAPI (λex 405, λem 461 nm).

Question: For `CC1=CC(C)=[N+]2C1=C(c1ccccc1)c1c(C)cc(C)n1[B-]2(F)F` [BODIPY, 1,3,5,7-tetramethyl-8-phenyl-4,4-difluoroboradiazaindacene], which stability to acids [1] is on record?
Answer: not stable to acids

Question: For `CC1=CC(C)=[N+]2C1=C(c1ccc(C(=O)ON3C(=O)CCC3=O)cc1)c1c(C)cc(C)n1[B-]2(F)F` [compound 2], which “fluorescence quantum yield Φ” value [2] is on record?
Answer: 0.6

Question: What about the “pH sensitivity of fluorescence” value [2] of the same compound?
Answer: pH insensitive

Question: Which Km (human cathepsin D) does the source give for “Ala-Ile-Ala-Phe↑Phe-Ser-Arg-Gln [kallistatin, natural CatD substrate kallistatin, from which Pimenta et al. derived the substrate]” here?
Answer: 0.27 µM

Question: What about the kcat (human cathepsin D) of the same compound?
Answer: 16.25 s⁻¹

Question: For Pepstatin A, which “effect of Pepstatin A on CatD-P3 fluorescence in infected macrophages” value [3] is on record?
Answer: a decrease in the fluorescence signal; also recorded: prevented CatD-P3 activation resulting in reduced/no green fluorescence; also recorded: marked decrease in fluorescent signal
